The values that follow come from US11230547B2, “Purine inhibitors of human phosphatidylinositol 3-kinase delta” (Merck Sharp & Dohme Corp., priority 2017, dated 2022).

Each structure is given as a SMILES string.

One assay addresses PI3Kdelta (Homo sapiens (Human), UniProt O00329). Description: HTRF PI3K biochemical assay, delta isoform. To be noted: 0.3 nM enzyme, 100 uM ATP, 5 uM PIP2, form screened per table. From the text:
(§1) HTRF PI3K Biochemical Assay to Measure Intrinsic Potency of Compound Inhibitors
(§2) The PI3-Kinase biochemical assays were developed to measure the intrinsic potency and compound dependent inhibition of the alpha, beta, delta, and gamma PI3K isoform enzymes. This assay was developed and further optimized from a kit produced by Upstate (Millipore catalog #33-047) (Millipore Sigma, Billerica Mass., USA) and has been configured for high throughput screening (HTS) and structure-activity relationship (SAR) screening. Briefly, this procedure exploits the exquisite specificity and high affinity binding of […] phosphatidyl(3,4,5)triphosphate (PIP3) to the GRP1 pleckstrin homology (PH) domain to generate the signal. In the absence of PIP3, an HTRF (Homogeneous Time-Resolved Fluorescence energy transfer) complex is formed consisting of europium (u)-labeled anti-GST, GST tagged GRP1-PH domain, biotin-PIP3 (biotinylated-PIP3) and streptavidin conjugated APC (Allophycocyanin). The native PIP3 produced by PI3-Kinase activity disrupts in a competitive manner the biotin-PIP3 from the pleckstrin homology (PH) domain, resulting in the loss of energy transfer (HTRF complex) and a decrease in the signal. The format of this assay is the same for all 4 isoforms of PI3K; the differences lie in the concentration of enzyme used to achieve robust assay window. The alpha, beta, and delta assays are run at 0.5, 1, and 0.3 nM enzymes and the gamma assay is run at 5 nM enzyme. The ATP concentration is 100 uM in the alpha, beta, and delta assays and 50 uM adenosine triphosphate (ATP) in the gamma assay. All reactions are run at 5 uM PIP2.
(§3) Compounds are serially diluted (3-fold in 100% DMSO) across a 384-well polypropylene source plated from column 3 to column 12 and column 13 to column 22, to yield 10 concentration dose response for each test compound. Columns 1, 2, 23 and 24 contain either only DMSO or pharmacological known control inhibitor. Once titrations are made, 2.5 nL of the compounds on 384 well plates are reformatted and transferred by acoustic dispense in quadruplicates to a 1536 assay plate (Greiner) to assay across all four PI3K isoform enzymes.
(§4) The PI3-Kinase biochemical assay was optimized using the HTRF kit provided by Upstate (Millipore). The assay kit contains six reagents: 1) 4× Reaction Buffer; 2) native PIP2 (substrate); 3) Stop (EDTA); 4) Detection Mix A (Streptavidin-APC); 5) Detection Mix B (Eu-labeled Anti-GST plus GST-tagged PH-domain); 6) Detection Mix C. In addition, the following items were obtained or purchased; PI3Kinase (catalog #'s alpha 14-602, beta 14-603, gamma 14-558 and delta 14-604 from Upstate Biotechnology now EMD Millipore, Mahopac, N.Y., USA), dithiothreitol (Sigma-Aldrich Corp. (St. Louis, Mo., USA) Catalog #D-5545), Adenosine-5′ triphosphate (InVitrogen (Waltham, Mass., USA), Cat#AS001A), native PIP3 (PI(3,4,5)P3, diC8, H^+, CELLSIGNALS, INC., (Columbus, Ohio, USA) Cat #907) DMSO ((Sigma-Aldrich Corp. (St. Louis, Mo., USA) Catalog #472301).
(§5) PI3Kinase Reaction Buffer is prepared by dilution the stock 1:4 with de-ionized water. DTT (DL-Dithiothreitol), phosphatidylinositol 4,5-bisphosphate (PIP2) and Biotin-PIP3 were added to 1536 assay plate at a final concentration of 5 mM, […] and 25 nM on the day of use. Enzyme addition and compound pre-incubation are initiated by the addition of 1.25 ul of PI3K (at twice its final concentration) in the 1× reaction buffer to all wells using a BioRaptr™ (Beckman Coulter, Waltham, Mass. USA). Plates are incubated at room temperature for 15 minutes. Reactions are initiated by addition of 1.25 ul of 2× substrate solution (PIP2 and ATP in 1× reaction buffer) using BioRaptr™. Plates are incubated in humidified chamber at room temperature for one hour. Reactions are quenched by addition of 0.625 uL of stop solution to all wells using the BioRaptr™. […]

The target in another assay is PI3Kalpha (Homo sapiens (Human), UniProt P42336). The assay can be described thus: HTRF PI3K biochemical assay, alpha isoform (selectivity versus delta). To be noted: relative ratio PI3K-alpha IC50 value / PI3K-delta IC50 value.
Chain of PI3Kalpha (P42336 whole entry, canonical isoform): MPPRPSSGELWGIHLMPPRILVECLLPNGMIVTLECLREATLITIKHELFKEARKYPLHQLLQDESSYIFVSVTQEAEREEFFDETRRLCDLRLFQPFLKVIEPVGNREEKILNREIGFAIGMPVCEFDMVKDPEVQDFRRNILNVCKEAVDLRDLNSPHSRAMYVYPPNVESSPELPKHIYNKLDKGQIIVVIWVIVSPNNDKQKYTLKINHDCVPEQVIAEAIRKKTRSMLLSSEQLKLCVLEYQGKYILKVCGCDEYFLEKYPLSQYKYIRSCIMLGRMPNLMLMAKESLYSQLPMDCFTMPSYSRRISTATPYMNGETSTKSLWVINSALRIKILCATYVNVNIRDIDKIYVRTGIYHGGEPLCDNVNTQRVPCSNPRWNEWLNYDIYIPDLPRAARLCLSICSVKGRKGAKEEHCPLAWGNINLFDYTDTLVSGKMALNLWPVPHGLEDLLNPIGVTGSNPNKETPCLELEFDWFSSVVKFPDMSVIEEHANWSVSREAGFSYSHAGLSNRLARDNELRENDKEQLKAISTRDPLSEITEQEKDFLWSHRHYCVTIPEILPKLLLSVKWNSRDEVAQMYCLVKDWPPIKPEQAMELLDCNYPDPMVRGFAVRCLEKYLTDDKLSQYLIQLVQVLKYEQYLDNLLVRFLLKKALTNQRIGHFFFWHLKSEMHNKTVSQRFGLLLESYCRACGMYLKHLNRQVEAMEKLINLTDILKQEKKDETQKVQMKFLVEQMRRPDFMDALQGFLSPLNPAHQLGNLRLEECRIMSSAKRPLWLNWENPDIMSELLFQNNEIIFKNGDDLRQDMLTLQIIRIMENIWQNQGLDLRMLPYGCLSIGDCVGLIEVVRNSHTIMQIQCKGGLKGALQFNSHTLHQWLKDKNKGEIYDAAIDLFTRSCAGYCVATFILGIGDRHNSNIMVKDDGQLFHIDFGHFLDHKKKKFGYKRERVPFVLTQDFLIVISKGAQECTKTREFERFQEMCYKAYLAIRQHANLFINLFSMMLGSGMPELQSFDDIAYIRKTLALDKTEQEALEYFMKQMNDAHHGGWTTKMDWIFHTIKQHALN
Chain of PI3Kalpha (P27986 whole entry partner, canonical isoform): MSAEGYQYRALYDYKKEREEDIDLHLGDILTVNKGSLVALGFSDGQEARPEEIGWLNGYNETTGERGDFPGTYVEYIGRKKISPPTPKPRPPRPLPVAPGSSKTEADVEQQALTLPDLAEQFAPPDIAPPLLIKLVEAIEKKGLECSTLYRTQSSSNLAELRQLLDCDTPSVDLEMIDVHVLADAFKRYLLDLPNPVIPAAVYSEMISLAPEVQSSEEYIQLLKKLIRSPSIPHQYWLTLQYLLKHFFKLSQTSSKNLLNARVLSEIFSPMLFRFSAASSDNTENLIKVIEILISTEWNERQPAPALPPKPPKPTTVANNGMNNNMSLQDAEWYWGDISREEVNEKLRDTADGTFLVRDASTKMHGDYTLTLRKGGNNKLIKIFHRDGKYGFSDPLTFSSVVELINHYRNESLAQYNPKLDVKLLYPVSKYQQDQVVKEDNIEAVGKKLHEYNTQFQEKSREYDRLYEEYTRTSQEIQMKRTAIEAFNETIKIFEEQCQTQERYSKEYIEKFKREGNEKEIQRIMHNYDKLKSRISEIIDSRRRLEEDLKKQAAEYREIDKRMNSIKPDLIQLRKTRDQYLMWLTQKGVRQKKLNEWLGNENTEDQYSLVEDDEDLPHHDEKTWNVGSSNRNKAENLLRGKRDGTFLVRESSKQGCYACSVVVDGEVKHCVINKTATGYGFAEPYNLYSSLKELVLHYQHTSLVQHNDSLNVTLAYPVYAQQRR
Excerpt: as §1, §2, §3, §4, §5
(In general: Time-resolved FRET reads energy transfer from a long-lived donor to a nearby acceptor.)

Chain of PI3Kdelta (O00329 whole entry, canonical isoform): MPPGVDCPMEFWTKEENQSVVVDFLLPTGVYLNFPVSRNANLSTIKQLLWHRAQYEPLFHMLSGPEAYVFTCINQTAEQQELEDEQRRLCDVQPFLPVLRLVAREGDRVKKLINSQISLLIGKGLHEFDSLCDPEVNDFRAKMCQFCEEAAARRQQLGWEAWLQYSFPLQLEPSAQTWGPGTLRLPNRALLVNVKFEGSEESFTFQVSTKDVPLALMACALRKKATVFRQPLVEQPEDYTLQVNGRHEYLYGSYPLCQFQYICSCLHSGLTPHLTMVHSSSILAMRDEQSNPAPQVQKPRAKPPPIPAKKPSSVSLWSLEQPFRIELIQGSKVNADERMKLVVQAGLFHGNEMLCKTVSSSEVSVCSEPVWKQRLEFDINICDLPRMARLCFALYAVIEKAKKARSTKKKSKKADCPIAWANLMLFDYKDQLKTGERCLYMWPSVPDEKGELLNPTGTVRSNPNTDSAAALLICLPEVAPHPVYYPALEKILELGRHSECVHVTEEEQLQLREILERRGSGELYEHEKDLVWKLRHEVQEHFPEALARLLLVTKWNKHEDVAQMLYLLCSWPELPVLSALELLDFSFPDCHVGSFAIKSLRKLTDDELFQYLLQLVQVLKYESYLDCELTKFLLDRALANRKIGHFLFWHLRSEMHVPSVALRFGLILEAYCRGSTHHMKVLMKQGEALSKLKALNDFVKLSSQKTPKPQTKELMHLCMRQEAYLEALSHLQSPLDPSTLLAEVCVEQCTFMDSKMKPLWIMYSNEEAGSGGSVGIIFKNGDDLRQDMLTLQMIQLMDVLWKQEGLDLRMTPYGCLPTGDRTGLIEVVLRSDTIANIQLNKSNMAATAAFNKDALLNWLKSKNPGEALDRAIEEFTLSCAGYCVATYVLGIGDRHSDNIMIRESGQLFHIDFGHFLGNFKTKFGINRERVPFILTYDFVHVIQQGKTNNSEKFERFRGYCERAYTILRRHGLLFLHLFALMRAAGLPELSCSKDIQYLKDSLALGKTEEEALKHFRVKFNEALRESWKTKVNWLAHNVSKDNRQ
Chain of PI3Kdelta (P27986 whole entry partner, canonical isoform): as the sequence (P27986 whole entry partner, canonical isoform) above

For `Cn1cc(-c2ncc(C#N)c(N3CC4C[C@H]3CN4S(=O)(=O)C3CCCC3)n2)cn1` (stereo in doubt) [Compound 2-15, 4-[(1S,4R)-5-(cyclopentylsulfonyl)-2,5-diazabicyclo[2.2.1]hept-2-yl]-2-(1-methyl-1H-pyrazol-4-yl)pyrimidine-5-carbonitrile], the IC50 – broadly, the concentration at which inhibition is half-maximal – against PI3Kdelta came to 650 nM. Besides, the “Selectivity versus PI3Kalpha” value on PI3Kalpha is listed as >10.
`Cn1cc(-c2ncc(C#N)c(N3CC4C[C@H]3CN4CCCF)n2)cn1` (stereo in doubt) [Compound 2-16, 4-[(1S,4R)-5-(3-fluoropropyl)-2,5-diazabicyclo[2.2.1]hept-2-yl]-2-(1-methyl-1H-pyrazol-4-yl)pyrimidine-5-carbonitrile] had an IC50 against PI3Kdelta of 970 nM. The “Selectivity versus PI3Kalpha” value on PI3Kalpha is on record as >10.
For the compound `N#Cc1cnc(-c2cn[nH]c2)nc1N1C[C@@H]2C[C@H]1CN2c1cccc(F)c1` [Compound 1-7, 4-[(1S,4S)-5-(3-fluorophenyl)-2,5-diazabicyclo[2.2.1]hept-2-yl]-2-(1H-pyrazol-4-yl)pyrimidine-5-carbonitrile], inhibition against PI3Kdelta was half-maximal at 42 nM (IC50). For the same compound, the “Selectivity versus PI3Kalpha” value on PI3Kalpha is >10.
For `Cn1cc(-c2ncc(C#N)c(N3C[C@@H]4C[C@H]3CN4c3cccc(F)c3)n2)cn1` [Compound 1-16, 4-[(1S,4S)-5-(3-fluorophenyl)-2,5-diazabicyclo[2.2.1]hept-2-yl]-2-(1-methyl-1H-pyrazol-4-yl)pyrimidine-5-carbonitrile], the 50% inhibitory concentration (IC50) against PI3Kdelta came out at 31 nM. The “Selectivity versus PI3Kalpha” value on PI3Kalpha is on record as >10.
`Cn1cc(-c2ncc(C#N)c(N3CCN(c4cccc(F)c4)C(C)(C)C3)n2)cn1` [Compound 3-1, 4-[4-(3-fluorophenyl)-3,3-dimethylpiperazin-1-yl]-2-(1-methyl-1H-pyrazol-4-yl)pyrimidine-5-carbonitrile] yielded a 50% inhibitory concentration (IC50) against PI3Kdelta of 1500 nM. Moreover, the “Selectivity versus PI3Kalpha” value on PI3Kalpha was determined as 8.
Compound `Cn1cc(-c2ncc(C#N)c(N3CCN(c4cccc(F)c4)CC3)n2)cn1` [Compound 3-2, 4-[4-(3-fluorophenyl)piperazin-1-yl]-2-(1-methyl-1H-pyrazol-4-yl)pyrimidine-5-carbonitrile] registered an IC50 against PI3Kdelta of 1600 nM. The “Selectivity versus PI3Kalpha” value on PI3Kalpha was determined as 7.
In turn, `C[C@@H]1CN(c2nc(-c3cnn(C)c3)ncc2C#N)CCN1c1cccc(F)c1` [Compound 3-3, 4-[(3R)-4-(3-fluorophenyl)-3-methylpiperazin-1-yl]-2-(1-methyl-1H-pyrazol-4-yl)pyrimidine-5-carbonitrile] showed an IC50 on PI3Kdelta of 170 nM. The “Selectivity versus PI3Kalpha” value on PI3Kalpha is listed as >10.
As for `Cn1cc(-c2ncc(C#N)c(N3CC4CCC(C3)N4c3cccc(F)c3)n2)cn1` [Compound 3-4, 4-[8-(3-fluorophenyl)-3,8-diazabicyclo[3.2.1]oct-3-yl]-2-(1-methyl-1H-pyrazol-4-yl)pyrimidine-5-carbonitrile], the IC50 against PI3Kdelta amounted to 1000 nM. Moreover, on PI3Kalpha, the “Selectivity versus PI3Kalpha” value is >10.
The like results for `C[C@@H]1CN(c2nc(-c3cnn(C)c3)ncc2C#N)CCN1C(=O)C1CC1` [Compound 4-1, 4-[(3R)-4-(cyclopropylcarbonyl)-3-methylpiperazin-1-yl]-2-(1-methyl-1H-pyrazol-4-yl)pyrimidine-5-carbonitrile] were, in that order, 110 nM and >10.
For `CCC(=O)N1CCN(c2nc(-c3cnn(C)c3)ncc2C#N)C[C@H]1C` [Compound 4-2, 4-[(3R)-3-methyl-4-propanoylpiperazin-1-yl]-2-(1-methyl-1H-pyrazol-4-yl)pyrimidine-5-carbonitrile], half-maximal inhibition at PI3Kdelta (IC50) was put at 260 nM. Further, at PI3Kalpha, the “Selectivity versus PI3Kalpha” value is reported as >10.
On to `C[C@@H]1CN(c2nc(-c3cnn(C)c3)ncc2C#N)CCN1C(=O)C1CCC1` [Compound 4-3, 4-[(3R)-4-(cyclobutylcarbonyl)-3-methylpiperazin-1-yl]-2-(1-methyl-1H-pyrazol-4-yl)pyrimidine-5-carbonitrile], for which, on PI3Kdelta, the IC50 came to 370 nM. Besides, the “Selectivity versus PI3Kalpha” value on PI3Kalpha is >10.
On PI3Kdelta, `C[C@@H]1CN(c2nc(-c3cnn(C)c3)ncc2C#N)CCN1C(=O)C1(C)CC1` [Compound 4-4, 4-{(3R)-3-methyl-4-[(1-methylcyclopropyl)carbonyl]piperazin-1-yl}-2-(1-methyl-1H-pyrazol-4-yl)pyrimidine-5-carbonitrile] returned an IC50 of 1100 nM. For the same compound, the “Selectivity versus PI3Kalpha” value on PI3Kalpha is reported as >10.
Regarding `C[C@@H]1CN(c2nc(-c3cnn(C)c3)ncc2C#N)CCN1C(=O)C1CCC1(F)F` (stereo partly drawn) [Compound 4-5, 4-{(3R)-4-[(2,2-difluorocyclobutyl)carbonyl]-3-methylpiperazin-1-yl}-2-(1-methyl-1H-pyrazol-4-yl)pyrimidine-5-carbonitrile], half-maximal inhibition against PI3Kdelta (IC50) required 550 nM. Moreover, the “Selectivity versus PI3Kalpha” value at PI3Kalpha is recorded as >10.
The like results for `C[C@@H]1CN(c2nc(-c3cnn(C)c3)ncc2C#N)CCN1C(=O)C1CCCC1` [Compound 4-6, 4-[(3R)-4-(cyclopentylcarbonyl)-3-methylpiperazin-1-yl]-2-(1-methyl-1H-pyrazol-4-yl)pyrimidine-5-carbonitrile] were, in that order, 870 nM and >10.
The like results for `C[C@@H]1CN(c2nc(-c3cnn(C)c3)ncc2C#N)CCN1C(=O)C1CC12CCCC2` (stereo partly drawn) [Compound 4-7, 2-(1-methyl-1H-pyrazol-4-yl)-4-[(3R)-3-methyl-4-(spiro[2.4]hept-1-ylcarbonyl)piperazin-1-yl]pyrimidine-5-carbonitrile] were, in that order, 87 nM and >10.
The compound `C[C@@H]1C[C@H]1C(=O)N1CCN(c2nc(-c3cnn(C)c3)ncc2C#N)C[C@H]1C` [Compound 4-8, 4-[(3R)-3-methyl-4-{[(1R,2R)-2-methylcyclopropyl]carbonyl}piperazin-1-yl]-2-(1-methyl-1H-pyrazol-4-yl)pyrimidine-5-carbonitrile] came in with a half-maximal inhibitory concentration (IC50) against PI3Kdelta of 32 nM. Moreover, the “Selectivity versus PI3Kalpha” value at PI3Kalpha is >10.
The like results for `C[C@@H]1C[C@@H]1C(=O)N1CCN(c2nc(-c3cnn(C)c3)ncc2C#N)C[C@H]1C` [Compound 4-9, 4-[(3R)-3-methyl-4-{[(1S,2R)-2-methylcyclopropyl]carbonyl}piperazin-1-yl]-2-(1-methyl-1H-pyrazol-4-yl)pyrimidine-5-carbonitrile] were, in that order, 80 nM and >10.
In the case of `C[C@@H]1CN(c2nc(-c3cnn(C)c3)ncc2C#N)CCN1c1cccc([N+](=O)[O-])c1` [Compound 4-11, 4-[(3R)-3-methyl-4-(3-nitrophenyl)piperazin-1-yl]-2-(1-methyl-1H-pyrazol-4-yl)pyrimidine-5-carbonitrile], the IC50 at PI3Kdelta is 78 nM. Moreover, the “Selectivity versus PI3Kalpha” value at PI3Kalpha is on record as >10.
As to `C[C@@H]1CN(c2nc(-c3cnn(C)c3)ncc2C#N)CCN1c1cccc(C#N)c1` [Compound 4-12, 4-[(3R)-4-(3-cyanophenyl)-3-methylpiperazin-1-yl]-2-(1-methyl-1H-pyrazol-4-yl)pyrimidine-5-carbonitrile], the IC50 against PI3Kdelta was found to be 86 nM. For the same compound, on PI3Kalpha, the “Selectivity versus PI3Kalpha” value is >10.
Turning to `C[C@@H]1CN(c2nc(-c3cnn(C)c3)ncc2C#N)CCN1c1cccc(S(C)(=O)=O)c1` [Compound 4-13, 4-{(3R)-3-methyl-4-[3-(methylsulfonyl)phenyl]piperazin-1-yl}-2-(1-methyl-1H-pyrazol-4-yl)pyrimidine-5-carbonitrile], the IC50 against PI3Kdelta was determined as 30 nM. Besides, the “Selectivity versus PI3Kalpha” value at PI3Kalpha was >10.
